According to patent US12576069B2, “Compositions and methods for treating slow-flow vascular malformations” (YALE UNIVERSITY, priority 2019, dated 2026):
Where two headings read alike, the source gives them in different places.

How the values were obtained:
[1] = cited from earlier work
[2] = test system: venous malformation
Experimental: A relatively healthy patient with severely symptomatic venous malformations of the subcutaneous and intramuscular components of their thigh was treated according to methods of the disclosure. Their lesions were examined and diagnosis of the condition was made and confirmed based on duplex ultrasound and contrast enhanced MRI. […] Solutions were delivered to the patient using an operating suite using a sterile syringe. A total of 2 mL of omnipaque intravenous contrast was added into the mixture for radiopacity purposes under fluoroscopy and for in vivo visualization of the drug. Final concentration of the mixture was approximately 1 mg/mL This mixture was agitated via a three-way stopcock in the absence of air. The venous malformations were accessed percutaneously, using ultrasound and x-ray guidance. […] Different components of this multi focal venous malformation were similarly targeted and treated. […] Needle access tracts were plugged using a collagen matrix foam, and a sterile dressing was applied. The procedure was done under general endotracheal anesthesia, and the patient received postoperative anti-inflammatory and analgesic medications. […] A healthy patient with a disfiguring, symptomatic venous malformation of the subcutaneous tissues of the left nare was treated according to methods of the disclosure. Their lesion was examined, and diagnosis of the condition was made and confirmed based on contrast enhanced MRI. […] Solutions were delivered to the patient using an operating suite using a sterile syringe. A total of 2 mL of omnipaque intravenous contrast was added into the mixture for radiopacity purposes under fluoroscopy and for in vivo visualization of the drug. Final concentration of the mixture was approximately 1 mg/mL. This mixture was agitated via a three-way stopcock in the absence of air. The venous malformation was accessed percutaneously, using ultrasound and x-ray guidance. […] Different components of this focal venous malformation were similarly targeted and treated. […] Needle access tracts were plugged using a collagen matrix foam, and a sterile dressing was applied. The procedure was done under general endotracheal anesthesia, and the patient received postoperative anti-inflammatory and analgesic medications.

[3] = test system: congenital vascular malformations; settings: conventional treatment of vascular malformations; at times lethal; cited from earlier work
[4] = test system: complicated vascular malformations; settings: cited from earlier work
[5] = oral rapamycin, toxicities attributable to rapamycin

CO[C@H]1C[C@@H]2CC[C@@H](C)[C@@](O)(O2)C(=O)C(=O)N2CCCC[C@H]2C(=O)O[C@H]([C@H](C)C[C@@H]2CC[C@@H](OC(=O)C(C)(CO)CO)[C@H](OC)C2)CC(=O)[C@H](C)/C=C(\C)[C@@H](O)[C@@H](OC)C(=O)[C@H](C)C[C@H](C)/C=C/C=C/C=C/1C [Temsirolimus]
peak concentration Cmax, temsirolimus compared with sirolimus ([1]; IV infusion, theoretical comparison of equal units): almost similar | pain relief at follow-up ([2]; Example 1, post-operative day two, 14, and 90): excellent pain relief | venous flow in the malformation, color flow Doppler ([2]; Example 2, left nasal venous malformation, FIGS. 5A-5B): diminished venous flow | pain relief at follow-up ([2]; Example 2, post-operative day 14 and day ~90): partial pain relief | fevers or infection at follow-up ([2]; human, in vivo): no evidence of fevers or infection | fevers, infection at follow-up ([2]; human, in vivo): no evidence of fevers, infection | normal arterial flow adjacent to the malformation, spectral waveform analysis ([2]; human, in vivo): preservation of intervening normal arterial network of the face | perioperative complications ([2]; human, in vivo): no perioperative complications | post-operative labs ([2]; human, in vivo): within expected, normal limits

CCO [absolute ethanol, ethanol]
side effect profile [3]: up to 50%

CO[C@H]1C[C@@H]2CC[C@@H](C)[C@@](O)(O2)C(=O)C(=O)N2CCCC[C@H]2C(=O)O[C@H]([C@H](C)C[C@@H]2CC[C@@H](O)[C@H](OC)C2)CC(=O)[C@H](C)/C=C(\C)[C@@H](O)[C@@H](OC)C(=O)[C@H](C)C[C@H](C)/C=C/C=C/C=C/1C [rapamycin]
sirolimus AUC relative to temsirolimus AUC ([1]; single 25 mg intravenous dose of temsirolimus, patients with cancer): 2.7 fold | patients taken off of the study due to persistent adverse effects ([4]; oral rapamycin, phase II trial enrolling 61 patients): Two | Grade 3 and higher blood/bone marrow toxicity, share of patients [4, 5]: 27% | Grade 3 and higher gastrointestinal toxicity, share of patients [4, 5]: 3% | Grade 3 and higher metabolic/laboratory toxicity, share of patients [4, 5]: 3% | other commonly reported negative side effects ([4]; systemic rapamycin): stomatitis, headache, infections, myelodepression, acne, and hyperlipidemia
